Data: PubChem BioAssay AID248 (DTP/NCI, 2004)
Toxic doses and inconclusive results are not listed. No stated cut-off is given here; in the data, active means T/C of 150% or more; inactive means T/C below 125%.

Test system: L1210 leukemia ip in BDF1 mice, survival T/C
Test: NCI In Vivo Anticancer Drug Screen. Data for tumor model L1210 Leukemia (intraperitoneal) in B6D2F1 (BDF1) mice
Conditions: endpoint: mean survival time, higher = longer survival
In short: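 Transplantable tumor model; survival measured in treated vs vehicle control mice. Value = treated/control.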

[1] = dose: 100.0 mg/kg/injection, schedule: Q01DX001 (ip), vehicle: saline
[2] = dose: 200.0 mg/kg/injection, schedule: Q01DX001 (ip), vehicle: saline
[3] = dose: 400.0 mg/kg/injection, schedule: Q01DX001 (ip), vehicle: saline
[4] = dose: 100.0 mg/kg/injection, schedule: Q01DX009 (ip), vehicle: saline with Tween-80
[5] = dose: 100.0 mg/kg/injection, schedule: Q04DX003 (ip), vehicle: saline
[6] = dose: 200.0 mg/kg/injection, schedule: Q01DX009 (ip), vehicle: saline with Tween-80
[7] = dose: 200.0 mg/kg/injection, schedule: Q04DX003 (ip), vehicle: saline
[8] = dose: 400.0 mg/kg/injection, schedule: Q01DX009 (ip), vehicle: saline with Tween-80
[9] = dose: 400.0 mg/kg/injection, schedule: Q04DX003 (ip), vehicle: saline
[10] = dose: 100.0 mg/kg/injection, schedule: Q04DX003 (ip), vehicle: saline with Tween-80
[11] = dose: 200.0 mg/kg/injection, schedule: Q04DX003 (ip), vehicle: saline with Tween-80
[12] = dose: 400.0 mg/kg/injection, schedule: Q04DX003 (ip), vehicle: saline with Tween-80
[13] = dose: 100.0 mg/kg/injection, schedule: Q01DX Z (ip), vehicle: methylcellulose (MC)
[14] = dose: 200.0 mg/kg/injection, schedule: Q01DX Z (ip), vehicle: methylcellulose (MC)

Measured: T/C

CC(C)(C)C1CCNC(=O)CC1 (configuration not stated)
inactive: dose: 10.0 mg/kg/injection, schedule: Q01DX009 (ip), vehicle: Klucel (hydroxypropylcellulose) (HPC) 95 % of control | dose: 20.0 mg/kg/injection, schedule: Q01DX009 (ip), vehicle: Klucel (hydroxypropylcellulose) (HPC) 103 % of control | dose: 20.0 mg/kg/injection, schedule: Q04DX003 (ip), vehicle: Klucel (hydroxypropylcellulose) (HPC) 107 % of control | dose: 40.0 mg/kg/injection, schedule: Q04DX003 (ip), vehicle: Klucel (hydroxypropylcellulose) (HPC) 103 % of control | dose: 75.0 mg/kg/injection, schedule: Q01DX001 (ip), vehicle: carboxymethylcellulose (CMC) 102 % of control | dose: 150.0 mg/kg/injection, schedule: Q01DX001 (ip), vehicle: carboxymethylcellulose (CMC) 102 % of control | dose: 300.0 mg/kg/injection, schedule: Q01DX001 (ip), vehicle: carboxymethylcellulose (CMC) 96 % of control

CCCCOC(=O)Nc1ccccc1
inactive: dose: 100.0 mg/kg/injection, schedule: Q04DX003 (ip), vehicle: gum acacia 101 % of control | dose: 200.0 mg/kg/injection, schedule: Q04DX003 (ip), vehicle: gum acacia 108 % of control | dose: 400.0 mg/kg/injection, schedule: Q04DX003 (ip), vehicle: gum acacia 109 % of control

COc1ccc(C)cc1NC(C)=O
inactive: [1] 98 % of control | [2] 100 % of control | [3] 98 % of control

COC(=O)c1ccccc1NC(=O)COc1cc(Cl)c(Cl)cc1Cl
inactive: dose: 100.0 mg/kg/injection, schedule: Q04DX002 (ip), vehicle: Klucel (hydroxypropylcellulose) (HPC) 96 % of control | dose: 200.0 mg/kg/injection, schedule: Q04DX002 (ip), vehicle: Klucel (hydroxypropylcellulose) (HPC) 89 % of control | dose: 400.0 mg/kg/injection, schedule: Q04DX002 (ip), vehicle: Klucel (hydroxypropylcellulose) (HPC) 86 % of control

CSc1ccc(NC(=O)Nc2c(C)n(C)n(-c3ccccc3)c2=O)cc1
inactive: [1] 89 % of control | [4] 89 % of control | [5] 94 % of control | [2] 89 % of control | [6] 89 % of control | [7] 94 % of control | [3] 94 % of control | [8] 86 % of control | [9] 87 % of control

N#Cc1c(N)sc2c1CCCC2
inactive: [4] 98 % of control | [10] 102 % of control | [6] 95 % of control | [11] 98 % of control | [8] 101 % of control | [12] 101 % of control

[Cl][Pt+2][Cl].[NH-]CC(=O)O.[NH-]CC(=O)O
inactive: dose: 9.7 mg/kg/injection, schedule: Q01DX009 (ip), vehicle: saline 86 % of control | dose: 19.4 mg/kg/injection, schedule: Q01DX001 (ip), vehicle: saline 100 % of control | dose: 19.4 mg/kg/injection, schedule: Q01DX009 (ip), vehicle: saline 89 % of control | dose: 38.8 mg/kg/injection, schedule: Q01DX001 (ip), vehicle: saline 105 % of control | dose: 38.8 mg/kg/injection, schedule: Q01DX009 (ip), vehicle: saline 95 % of control | dose: 77.5 mg/kg/injection, schedule: Q01DX001 (ip), vehicle: saline 109 % of control | dose: 77.5 mg/kg/injection, schedule: Q01DX009 (ip), vehicle: saline 100 % of control | dose: 155.0 mg/kg/injection, schedule: Q01DX001 (ip), vehicle: saline 98 % of control

O=C(NCCCCCCCCCCNC(=O)C(Cl)Cl)C(Cl)Cl
inactive: dose: 100.0 mg/kg/injection, schedule: Q04DX003 (ip), vehicle: Klucel (hydroxypropylcellulose) (HPC) 98 % of control | dose: 200.0 mg/kg/injection, schedule: Q04DX003 (ip), vehicle: Klucel (hydroxypropylcellulose) (HPC) 90 % of control | dose: 400.0 mg/kg/injection, schedule: Q04DX003 (ip), vehicle: Klucel (hydroxypropylcellulose) (HPC) 105 % of control

COc1ccc2c(c1)CCC1C2CCC2(C)C1CCC2(C)N(C)C (configuration not stated)
inactive: dose: 50.0 mg/kg/injection, schedule: Q01DX001 (sc), vehicle: steriod suspending solution 104 % of control

O=C1NC(=O)C2C3CCC(C12)C3C(c1ccccc1)c1ccccc1 (configuration not stated)
inactive: dose: 100.0 mg/kg/injection, schedule: Q01DX001 (ip), vehicle: carboxymethylcellulose (CMC) 106 % of control | dose: 200.0 mg/kg/injection, schedule: Q01DX001 (ip), vehicle: carboxymethylcellulose (CMC) 95 % of control | dose: 400.0 mg/kg/injection, schedule: Q01DX001 (ip), vehicle: carboxymethylcellulose (CMC) 103 % of control

CC(=O)Nc1cc(CN2CCCCC2)c(O)c2ncccc12
inactive: dose: 75.0 mg/kg/injection, schedule: Q01DX001 (ip), vehicle: other 120 % of control | dose: 150.0 mg/kg/injection, schedule: Q01DX001 (ip), vehicle: other 105 % of control | dose: 300.0 mg/kg/injection, schedule: Q01DX001 (ip), vehicle: other 107 % of control

CC1C(Br)C(=O)NC(=O)N1Cc1ccccc1 (configuration not stated)
inactive: [13] 92 % of control | [14] 94 % of control

CC(=O)c1ccc(N)cc1
inactive: dose: 100.0 mg/kg/injection, schedule: Q01DX009 (ip), vehicle: other 94 % of control | dose: 100.0 mg/kg/injection, schedule: Q04DX002 (ip), vehicle: other 100 % of control | dose: 200.0 mg/kg/injection, schedule: Q01DX009 (ip), vehicle: other 102 % of control | dose: 200.0 mg/kg/injection, schedule: Q04DX002 (ip), vehicle: other 117 % of control | dose: 400.0 mg/kg/injection, schedule: Q04DX002 (ip), vehicle: other 114 % of control

c1ccc(C2c3cc4ccccc4cc3Oc3ccc4ccccc4c32)cc1 (configuration not stated)
inactive: dose: 75.0 mg/kg/injection, schedule: Q04DX003 (ip), vehicle: other 94 % of control | dose: 300.0 mg/kg/injection, schedule: Q04DX003 (ip), vehicle: other 103 % of control

CCC(C(=O)NC(=O)NOC)c1ccccc1 (configuration not stated)
inactive: [13] 95 % of control | [14] 114 % of control | dose: 400.0 mg/kg/injection, schedule: Q01DX Z (ip), vehicle: methylcellulose (MC) 116 % of control

CCCCCCC#CC(=O)O
inactive: dose: 100.0 mg/kg/injection, schedule: Q01DX009 (sc), vehicle: olive oil, sesame oil, peanut oil 103 % of control | dose: 100.0 mg/kg/injection, schedule: Q04DX003 (sc), vehicle: olive oil, sesame oil, peanut oil 97 % of control | dose: 200.0 mg/kg/injection, schedule: Q01DX009 (sc), vehicle: olive oil, sesame oil, peanut oil 108 % of control | dose: 200.0 mg/kg/injection, schedule: Q04DX003 (sc), vehicle: olive oil, sesame oil, peanut oil 106 % of control | dose: 400.0 mg/kg/injection, schedule: Q01DX009 (sc), vehicle: olive oil, sesame oil, peanut oil 95 % of control | dose: 400.0 mg/kg/injection, schedule: Q04DX003 (sc), vehicle: olive oil, sesame oil, peanut oil 108 % of control

CC(O)(Cc1ccccc1)c1ccccc1 (configuration not stated)
inactive: dose: 44.0 mg/kg/injection, schedule: Q04DX003 (ip), vehicle: saline with Tween-80 94 % of control | dose: 66.0 mg/kg/injection, schedule: Q04DX003 (ip), vehicle: saline with Tween-80 94 % of control | [4] 102 % of control | [10] 94 % of control | dose: 150.0 mg/kg/injection, schedule: Q04DX003 (ip), vehicle: saline with Tween-80 96 % of control | [6] 98 % of control | [11] 107 % of control | [8] 102 % of control | [12] 104 % of control

Cc1cc(-c2ccccc2O)nc(N)n1
inactive: dose: 100.0 mg/kg/injection, schedule: Q04DX002 (ip), vehicle: saline 90 % of control | dose: 200.0 mg/kg/injection, schedule: Q04DX002 (ip), vehicle: saline 94 % of control | dose: 400.0 mg/kg/injection, schedule: Q04DX002 (ip), vehicle: saline 90 % of control

O=S(=O)(CC(Br)c1ccccc1)c1ccccc1 (configuration not stated)
inactive: dose: 100.0 mg/kg/injection, schedule: Q01DX009 (ip), vehicle: saline 92 % of control | [5] 101 % of control | dose: 200.0 mg/kg/injection, schedule: Q01DX009 (ip), vehicle: saline 95 % of control | [7] 104 % of control | dose: 400.0 mg/kg/injection, schedule: Q01DX009 (ip), vehicle: saline 94 % of control | [9] 97 % of control

CCOC(=O)C(OC(=O)c1ccccc1)(OC(=O)c1ccccc1)C(=O)OCC
inactive: [1] 101 % of control | [2] 93 % of control
